Data: PubChem BioAssay AID248 (DTP/NCI, 2004)
Several values for one entry are separate records, joined by “and”; a condition that tells them apart may be missing. Identical values can stand only once. Inconclusive results and toxic doses are left out.

System: L1210 leukemia ip in BDF1 mice, survival T/C
Experiment: NCI In Vivo Anticancer Drug Screen. Data for tumor model L1210 Leukemia (intraperitoneal) in B6D2F1 (BDF1) mice
Conditions: endpoint: mean survival time, higher = longer survival
Outline: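 Transplanted-tumor mice were given test agent; controls received vehicle only. Survival readings from the two groups were divided (treated over control).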

In the case of `NC(Cc1c[nH]c2ccc(N(CCCl)CCCl)cc12)C(=O)O` (stereo not given), the T/C (dose: 0.01 mg/kg/injection, schedule: Q#A X Z (ip), vehicle: acid diluted with saline) was 124 % of control, the T/C (dose: 0.02 mg/kg/injection, schedule: Q01DX010 (iv), vehicle: acid diluted with saline) was 103 % of control and the T/C (dose: 0.02 mg/kg/injection, schedule: Q01DX Z (ip), vehicle: acid diluted with saline) was 108 % of control. For the same compound, the T/C (dose: 0.02 mg/kg/injection, schedule: Q01DX Z (ip), vehicle: saline) was 119 % of control, the T/C (dose: 0.02 mg/kg/injection, schedule: Q01DX Z (sc), vehicle: acid diluted with saline) was 114 % of control and the T/C (dose: 0.05 mg/kg/injection, schedule: Q07DX Z (ip), vehicle: acid diluted with saline) was 111 % of control. For the same compound, the T/C (dose: 0.06 mg/kg/injection, schedule: Q01DX010 (iv), vehicle: acid diluted with saline) was 108 % of control, the T/C (dose: 0.06 mg/kg/injection, schedule: Q01DX Z (sc), vehicle: acid diluted with saline) was 106 % of control and the T/C (dose: 0.09 mg/kg/injection, schedule: Q#A X Z (ip), vehicle: acid diluted with saline) was 167 % of control. The T/C (dose: 0.1 mg/kg/injection, schedule: Q03DX Z (oral), vehicle: acid diluted with saline) was 110 % of control, the T/C (dose: 0.12 mg/kg/injection, schedule: Q01DX Z (oral), vehicle: acid diluted with saline) was 102 % of control and the T/C (dose: 0.12 mg/kg/injection, schedule: Q#A X Z (oral), vehicle: acid diluted with saline) was 121 % of control. For the same compound, the T/C (dose: 0.13 mg/kg/injection, schedule: Q01DX Z (ip), vehicle: saline) was 169 % of control, the T/C (dose: 0.13 mg/kg/injection, schedule: Q01DX Z (oral), vehicle: acid diluted with saline) was 101 % of control and the T/C (dose: 0.15 mg/kg/injection, schedule: Q01DX Z (oral), vehicle: saline) was 96 % of control. For the same compound, the T/C (dose: 0.16 mg/kg/injection, schedule: Q07DX Z (ip), vehicle: acid diluted with saline) was 103 % of control, the T/C (dose: 0.18 mg/kg/injection, schedule: Q01DX009 (ip), vehicle: saline) was 115 % of control and the T/C (dose: 0.18 mg/kg/injection, schedule: Q01DX Z (sc), vehicle: acid diluted with saline) was 120 % of control. The T/C (dose: 0.19 mg/kg/injection, schedule: Q03DX Z (oral), vehicle: acid diluted with saline) was 114 % of control, the T/C (dose: 0.26 mg/kg/injection, schedule: Q01DX Z (ip), vehicle: saline) was 153 % of control and 157 % of control and the T/C (dose: 0.27 mg/kg/injection, schedule: Q#A X Z (ip), vehicle: acid diluted with saline) was 97 % of control. For the same compound, the T/C (dose: 0.3 mg/kg/injection, schedule: Q01DX Z (oral), vehicle: saline) was 100 % of control, the T/C (dose: 0.38 mg/kg/injection, schedule: Q03DX Z (oral), vehicle: acid diluted with saline) was 112 % of control and the T/C (dose: 0.39 mg/kg/injection, schedule: Q01DX Z (ip), vehicle: saline) was 166 % of control. The T/C (dose: 0.5 mg/kg/injection, schedule: Q03DX Z (oral), vehicle: acid diluted with saline) was 120 % of control, the T/C (dose: 0.5 mg/kg/injection, schedule: Q#A X Z (oral), vehicle: acid diluted with saline) was 107 % of control and the T/C (dose: 0.54 mg/kg/injection, schedule: Q01DX Z (ip), vehicle: acid diluted with saline) was 198 % of control. For the same compound, the T/C (dose: 0.54 mg/kg/injection, schedule: Q01DX Z (sc), vehicle: acid diluted with saline) was 160 % of control, the T/C (dose: 0.58 mg/kg/injection, schedule: Q01DX Z (ip), vehicle: saline) was 190 % of control and the T/C (dose: 0.6 mg/kg/injection, schedule: Q01DX Z (oral), vehicle: saline) was 101 % of control. The T/C (dose: 0.75 mg/kg/injection, schedule: Q01DX009 (ip), vehicle: saline) was 176 % of control, the T/C (dose: 0.75 mg/kg/injection, schedule: Q03DX Z (oral), vehicle: acid diluted with saline) was 114 % of control and the T/C (dose: 0.87 mg/kg/injection, schedule: Q01DX Z (ip), vehicle: saline) was 211 % of control. The T/C (dose: 0.9 mg/kg/injection, schedule: Q07DX Z (oral), vehicle: acid diluted with saline) was 114 % of control, the T/C (dose: 1.0 mg/kg/injection, schedule: Q01DX (oral), vehicle: acid diluted with saline) was 189 % of control and the T/C (dose: 1.0 mg/kg/injection, schedule: Q03DX Z (oral), vehicle: acid diluted with saline) was 117 % of control. The T/C (dose: 1.2 mg/kg/injection, schedule: Q01DX Z (oral), vehicle: saline) was 115 % of control, the T/C (dose: 1.3 mg/kg/injection, schedule: Q07DX003 (ip), vehicle: acid diluted with saline) was 155 % of control and the T/C (dose: 1.5 mg/kg/injection, schedule: Q01DX009 (ip), vehicle: saline) was 160 % of control and 260 % of control. The T/C (dose: 1.5 mg/kg/injection, schedule: Q03DX (oral), vehicle: acid diluted with saline) was 117 % of control, the T/C (dose: 1.5 mg/kg/injection, schedule: Q03DX Z (oral), vehicle: acid diluted with saline) was 183 % of control and the T/C (dose: 1.6 mg/kg/injection, schedule: Q01DX Z (sc), vehicle: acid diluted with saline) was 103 % of control. For the same compound, the T/C (dose: 1.75 mg/kg/injection, schedule: Q01DX 1 (oral), vehicle: acid diluted with saline) was 102 % of control and 107 % of control, the T/C (dose: 1.75 mg/kg/injection, schedule: Q07DX (oral), vehicle: acid diluted with saline) was 112 % of control and the T/C (dose: 1.8 mg/kg/injection, schedule: Q07DX Z (oral), vehicle: acid diluted with saline) was 117 % of control. For the same compound, the T/C (dose: 1.87 mg/kg/injection, schedule: Q01DX001 (oral), vehicle: carboxymethylcellulose (CMC)) was 106 % of control, the T/C (dose: 2.0 mg/kg/injection, schedule: Q01DX (oral), vehicle: acid diluted with saline) was 102 % of control and the T/C (dose: 3.5 mg/kg/injection, schedule: Q01DX 1 (oral), vehicle: acid diluted with saline) was 110 % of control and 124 % of control. For the same compound, the T/C (dose: 3.5 mg/kg/injection, schedule: Q07DX (oral), vehicle: acid diluted with saline) was 114 % of control, the T/C (dose: 3.75 mg/kg/injection, schedule: Q01DX001 (ip), vehicle: carboxymethylcellulose (CMC)) was 192 % of control and the T/C (dose: 3.75 mg/kg/injection, schedule: Q01DX001 (oral), vehicle: carboxymethylcellulose (CMC)) was 108 % of control. For the same compound, the T/C (dose: 4.0 mg/kg/injection, schedule: Q01DX (oral), vehicle: acid diluted with saline) was 106 % of control, the T/C (dose: 5.0 mg/kg/injection, schedule: Q01DX001 (ip), vehicle: saline) was 295 % of control and the T/C (dose: 7.0 mg/kg/injection, schedule: Q01DX 1 (oral), vehicle: acid diluted with saline) was 110 % of control and 124 % of control. The T/C (dose: 7.0 mg/kg/injection, schedule: Q07DX (oral), vehicle: acid diluted with saline) was 123 % of control, the T/C (dose: 7.0 mg/kg/injection, schedule: Q07DX Z (oral), vehicle: acid diluted with saline) was 116 % of control and the T/C (dose: 7.5 mg/kg/injection, schedule: Q01DX001 (ip), vehicle: carboxymethylcellulose (CMC)) was 264 % of control. For the same compound, the T/C (dose: 7.5 mg/kg/injection, schedule: Q01DX001 (oral), vehicle: carboxymethylcellulose (CMC)) was 114 % of control, the T/C (dose: 8.0 mg/kg/injection, schedule: Q01DX (oral), vehicle: acid diluted with saline) was 95 % of control and the T/C (dose: 8.0 mg/kg/injection, schedule: Q03DX Z (oral), vehicle: acid diluted with saline) was 119 % of control. For the same compound, the T/C (dose: 10.0 mg/kg/injection, schedule: Q01DX001 (ip), vehicle: saline) was 270 % of control, the T/C (dose: 14.0 mg/kg/injection, schedule: Q01DX 1 (oral), vehicle: acid diluted with saline) was 105 % of control and 115 % of control and the T/C (dose: 14.0 mg/kg/injection, schedule: Q07DX Z (oral), vehicle: acid diluted with saline) was 107 % of control. For the same compound, the T/C (dose: 15.0 mg/kg/injection, schedule: Q01DX001 (oral), vehicle: carboxymethylcellulose (CMC)) was 119 % of control, the T/C (dose: 16.0 mg/kg/injection, schedule: Q01DX (oral), vehicle: acid diluted with saline) was 95 % of control and the T/C (dose: 16.0 mg/kg/injection, schedule: Q01DX Z (oral), vehicle: acid diluted with saline) was 116 % of control. For the same compound, the T/C (dose: 20.0 mg/kg/injection, schedule: Q01DX001 (oral), vehicle: saline) was 119 % of control, the T/C (dose: 28.0 mg/kg/injection, schedule: Q01DX 1 (oral), vehicle: acid diluted with saline) was 104 % of control and 118 % of control and the T/C (dose: 28.0 mg/kg/injection, schedule: Q01DX001 (oral), vehicle: acid diluted with saline) was 108 % of control and 118 % of control. For the same compound, the T/C (dose: 28.0 mg/kg/injection, schedule: Q07DX (oral), vehicle: acid diluted with saline) was 120 % of control, the T/C (dose: 40.0 mg/kg/injection, schedule: Q01DX001 (oral), vehicle: saline) was 86 % of control and the T/C (dose: 56.0 mg/kg/injection, schedule: Q01DX 1 (oral), vehicle: acid diluted with saline) was 113 % of control and 121 % of control. The T/C (dose: 56.0 mg/kg/injection, schedule: Q01DX001 (oral), vehicle: acid diluted with saline) was 117 % of control and 122 % of control, the T/C (dose: 56.0 mg/kg/injection, schedule: Q07DX (oral), vehicle: acid diluted with saline) was 123 % of control and the T/C (dose: 80.0 mg/kg/injection, schedule: Q01DX001 (oral), vehicle: saline) was 102 % of control. For the same compound, the T/C (dose: 112.0 mg/kg/injection, schedule: Q01DX001 (oral), vehicle: acid diluted with saline) was 120 % of control, the T/C (dose: 168.0 mg/kg/injection, schedule: Q01DX001 (oral), vehicle: acid diluted with saline) was 122 % of control and the T/C (dose: 204.0 mg/kg/injection, schedule: Q01DX 1 (oral), vehicle: acid diluted with saline) was 106 % of control. For the same compound, the T/C (dose: 204.0 mg/kg/injection, schedule: Q01DX001 (oral), vehicle: acid diluted with saline) was 107 % of control, the T/C (dose: 1.0 micrograms/kg/injection, schedule: Q07DX 2 (ip), vehicle: acid diluted with saline) was 101 % of control and the T/C (dose: 5.0 micrograms/kg/injection, schedule: Q07DX 2 (ip), vehicle: acid diluted with saline) was 102 % of control. For the same compound, the T/C (dose: 16.0 micrograms/kg/injection, schedule: Q07DX 2 (ip), vehicle: acid diluted with saline) was 117 % of control, the T/C (dose: 22.0 micrograms/kg/injection, schedule: Q01DX Z (ip), vehicle: saline) was 104 % of control and the T/C (dose: 33.0 micrograms/kg/injection, schedule: Q01DX Z (ip), vehicle: saline) was 107 % of control. The T/C (dose: 45.0 micrograms/kg/injection, schedule: Q01DX009 (ip), vehicle: saline) was 109 % of control, the T/C (dose: 50.0 micrograms/kg/injection, schedule: Q01DX Z (ip), vehicle: saline) was 107 % of control and the T/C (dose: 50.0 micrograms/kg/injection, schedule: Q07DX 2 (ip), vehicle: acid diluted with saline) was 123 % of control. For the same compound, the T/C (dose: 75.0 micrograms/kg/injection, schedule: Q01DX Z (ip), vehicle: saline) was 115 % of control, the T/C (dose: 750.0 micrograms/kg/injection, schedule: Q01DX009 (ip), vehicle: saline) was 207 % of control and the T/C (dose: 1500.0 micrograms/kg/injection, schedule: Q01DX009 (ip), vehicle: saline) was 219 % of control.
